Measured values: ChEMBL document CHEMBL1147791, “Polyamines and the NMDA receptor: modifying intrinsic activities with aromatic substituents” (Bioorg Med Chem Lett, 2006)

Assays:
Assay type in all cases: protein-complex assay
[1] = target: T1, Glutamate NMDA receptor (Rattus norvegicus) (UniProt P35439+Q00959+Q00960+Q00961+Q62645+Q8VHN2+Q9R1M7); test: Attenuation at rat NMDA receptor assessed as ratio of inhibition of [3H]MK-801 binding to NMDA receptor in presence to absence of spermine
Glutamate NMDA receptor [2] = test: Inhibition of [3H]MK-801 binding to rat NMDA receptor
Glutamate NMDA receptor [3] = test: (§1) Stimulation of [3H]MK-801 binding to rat NMDA receptor
[4] = target: T1, Glutamate NMDA receptor (Rattus norvegicus); test: as §1

| Ratio IC50 [1] | IC50 (Glutamate NMDA receptor [2]) [µM] | EC50 (Glutamate NMDA receptor [3]) [µM] | Activity [4] [%] | SMILES |
| --- | --- | --- | --- | --- |
| 2.27 | 6.12 | – | – | c1ccc(CNCCCNCCCCNCCCNCc2ccccc2)cc1 |
| – | > 300 | – | – | CC(C)(C)OC(=O)N(CCCN)CCCCN |
| 0.63 | 11.2 | – | – | N=C(N)NCCCN(CCCCN(CCCNC(=N)N)CCCc1ccccc1)CCCc1ccccc1 |
| 0.93 | 182 | 1.8 | 26 | NCCCNCCCCN(CCCN)CCCc1ccccc1 |
| 1.43 | 25.6 | – | – | NCCCNCCCCNCCCNCCCc1ccccc1 |
| 2.84 | 4.7 | – | – | c1ccc2cc(CNCCCNCCCCNCCCNCc3ccc4ccccc4c3)ccc2c1 |
| 4.3 | 38 | – | – | NCCCN(CCCCN(CCCN)Cc1ccccc1)Cc1ccccc1 |
| 4.7 | 17.2 | – | – | NCCCN(CCCCN(CCCN)C(=O)OCc1ccccc1)C(=O)OCc1ccccc1 |
| – | > 300 | 2.7 | 28 | NCCCNCCCCN(CCCN)Cc1ccccc1 |
| 2.2 | 9.1 | – | – | NCCCN(CCCCN(CCCN)Cc1ccc2ccccc2c1)Cc1ccc2ccccc2c1 |
| 13.1 | 9.8 | – | – | NCCCCN(CCCN)Cc1ccc2ccccc2c1 |
| 2.6 | 26.7 | – | – | NCCCN(CCCCN(CCCN)CCCc1ccccc1)CCCc1ccccc1 |
| 2.03 | 9.5 | – | – | c1ccc(CCCNCCCCN(CCCNCCCc2ccccc2)CCCc2ccccc2)cc1 |
| 67 | 17.6 | – | – | NCCCCN(CCCN)C(=O)OCc1ccccc1 |
| – | > 300 | – | – | O=C(NCCCCNCCCNC(=O)c1ccccc1)c1ccccc1 |
| 2.2 | 4.37 | – | – | c1ccc2c(CNCCCCNCCCNCc3cccc4ccccc34)cccc2c1 |
| 1.58 | 3.9 | – | – | c1ccc(CCCN(CCCNCCCCNCCCN(CCCc2ccccc2)CCCc2ccccc2)CCCc2ccccc2)cc1 |

| Ratio IC50 [1] | IC50 (Glutamate NMDA receptor [2]) [µM] | EC50 (Glutamate NMDA receptor [3]) [µM] | Activity [4] [%] | SMILES |
| --- | --- | --- | --- | --- |
| 1.45 | 58 | – | – | NCCCNCCCCN(CCCN)Cc1ccc2ccccc2c1 |
| – | > 300 | – | – | NCCCCN(CCCN)CCCc1ccccc1 |
| 1.5 | 13 | – | – | N=C(N)NCCCN(CCCCN(CCCN)CCCc1ccccc1)CCCc1ccccc1 |
| 1.49 | 8.4 | – | – | c1ccc(CCCNCCCN(CCCCN(CCCNCCCc2ccccc2)CCCc2ccccc2)CCCc2ccccc2)cc1 |
| 1.96 | 14 | – | – | CC(C)NCCCN(CCCCN(CCCN)Cc1ccc2ccccc2c1)Cc1ccc2ccccc2c1 |
| 1.44 | 13.1 | – | – | NCCCN(CCCCN(CCCNCCCc1ccccc1)CCCc1ccccc1)CCCc1ccccc1 |
| 0.48 | 44.6 | – | – | CC(C)NCCCN(CCCCN(CCCNC(C)C)Cc1ccc2ccccc2c1)Cc1ccc2ccccc2c1 |
| 0.92 | 7.4 | – | – | c1ccc(CCCNCCCNCCCCNCCCNCCCc2ccccc2)cc1 |
| 5.9 | 6.2 | – | – | c1ccc(CNCCCCNCCCNCc2ccccc2)cc1 |
| > 10 | 56 | – | – | O=C(NCCCCNCCCNC(=O)OCc1ccccc1)OCc1ccccc1 |
| 1.66 | 14.3 | – | – | c1ccc2cc(CN(CCCCNCCCN(Cc3ccc4ccccc4c3)Cc3cccc4ccccc34)Cc3cccc4ccccc34)ccc2c1 |
| 5.1 | 14.2 | – | – | NCCCCN(CCCN)C1c2ccccc2CCc2ccccc21 |
| – | > 300 | – | – | NCCCCN(CCCN)Cc1ccccc1 |
| > 10 | 103 | – | – | O=C(Cc1ccccc1)NCCCNCCCCNCCCNC(=O)Cc1ccccc1 |
| > 10 | 82 | – | – | NCCCCN(CCCN)C(=O)c1ccccc1 |
| 1.32 | 8.7 | – | – | c1ccc2cc(CN(CCCNCCCCNCCCN(Cc3ccc4ccccc4c3)Cc3ccc4ccccc4c3)Cc3ccc4ccccc4c3)ccc2c1 |
| 5.3 | 6680 | – | – | CC(C)(C)OC(=O)N(CCCN)CCCCN(CCCN)C(=O)OC(C)(C)C |
